# Experiment: Induction of human SERT-dependent cytotoxicity in SERT expressing HEK293 cells after 48 hrs by neutral red assay
smiles,measurement,value
CCSc1ccc(CC(CC)NC)cc1 (stereo unspecified) [2-N-Methylamino-1-(4-ethylthiophenyl)butane],EC50,> 100 µM
